Data on 13 compounds can be found in ChEMBL document CHEMBL3621192, “Novel anti-HIV-1 NNRTIs based on a pyrazolo[4,3-d]isoxazole backbone scaffold: design, synthesis and insights into the molecular basis of action” (Medchemcomm, 2014).

The nature of series [1]: Therapeutic index, ratio of CC50 for human CEM-SS cells to EC50 for HIV1 RF infected in CEM-SS cells. It counts as cell-based. Particulars: read-out: Ratio CC50/EC50.
A short description of series [2]: Cytotoxicity against human CEM-SS cells by MTS assay. It counts as cell-based.
Series [3] deals with Human immunodeficiency virus 1. Kind of series: Antiviral activity against HIV1 RF infected in CEM-SS cells assessed as inhibition of virus-induced cytopathic effect by MTS assay. Particulars: Human immunodeficiency virus 1, RF. The format is functional, organism-based.
Series [4] in a line: Therapeutic index, ratio of CC50 for human MT4 cells to EC50 for HIV1 3B infected in MT4 cells. The format is cell-based. Particulars: read-out: Ratio CC50/EC50.
A short description of series [5]: Metabolic stability in rat plasma assessed as half life. It counts as ADME, cell-free.
Series [6] can be described thus: Cytotoxicity against human MT4 cells by MTT assay. The format is cell-based.
In series [7] the target is Human immunodeficiency virus type 1 reverse transcriptase (Human immunodeficiency virus 1, UniProt Q72547). In words: Inhibition of HIV1 recombinant reverse transcriptase assessed as incorporation of [32P]GTP into poly(rC).oligo(dG) template primer.
The test system of series [8] is Human immunodeficiency virus 1. In words: Antiviral activity against HIV1 3B infected in MT4 cells assessed as inhibition of virus-induced cytopathic effect by MTT assay. Particulars: Human immunodeficiency virus 1, 3B. The format is functional, organism-based.

On to `NC(=S)N1Nc2onc(-c3ccccc3)c2C1c1ccc(Cl)cc1` (stereo unspecified), for which the results for the selectivity ratio in series [1] and in series [4] were 462 and 1210, respectively. Also, the cytotoxic concentration (CC50) in series [2] was 360 nM; in series [6], 340 nM. Also, the figures for the EC50 in series [3] and in series [8] were 0.78 nM and 0.28 nM, respectively. Moreover, the half-life in series [5] worked out at 2.2 h. In addition, the IC50 in series [7] stood at 0.037 nM.
Turning to `Cc1nc(N2Nc3onc(-c4ccccc4)c3C2c2ccc(Cl)cc2)sc1/N=N/c1ccccc1` (stereo unspecified), the selectivity ratio amounted to 833 in series [1] and 867 in series [4]. The figures for the CC50 in series [2] and in series [6] were 450 nM and 260 nM, respectively. The 50% effective concentration (EC50) in series [3] was determined as 0.54 nM; in series [8], 0.3 nM. For the same compound, the half-life in series [5] turned out to be 4.42 h. For the same compound, the IC50 in series [7] was 0.019 nM.
In the case of `Cc1ccc(/N=N/c2sc(N3Nc4onc(-c5ccccc5)c4C3c3ccc(Cl)cc3)nc2C)cc1` (stereo unspecified), the selectivity ratio in series [1] turned out to be 1000; in series [4], 818. The results for the CC50 in series [2] and in series [6] were 250 nM and 450 nM, respectively. Further, the values for the EC50 in series [3] and in series [8] were 0.25 nM and 0.55 nM, respectively. Also, in series [5], the half-life amounted to 5.72 h. Moreover, the IC50 in series [7] worked out at 0.027 nM.
Regarding `Cc1nc(N2Nc3onc(-c4ccccc4)c3C2c2ccc(Cl)cc2)sc1/N=N/c1ccc(Cl)cc1` (stereo unspecified), the figures for the selectivity ratio in series [1] and in series [4] were 917 and 739, respectively. The values for the CC50 in series [2] and in series [6] were 330 nM and 340 nM, respectively. The 50% effective concentration (EC50) in series [3] stood at 0.36 nM; in series [8], 0.46 nM. In series [5], the half-life is 7.57 h. Also, the IC50 in series [7] came to 0.035 nM.
Consider `Cc1nc(N2Nc3onc(-c4ccccc4)c3C2c2ccc(Cl)cc2)sc1/N=N/c1ccc(Br)cc1` (stereo unspecified), for which the figures for the selectivity ratio in series [1] and in series [4] were 412 and 1440, respectively. Besides, the figures for the CC50 in series [2] and in series [6] were 140 nM and 390 nM, respectively. Also, the EC50 in series [3] was found to be 0.34 nM; in series [8], 0.27 nM. Also, the half-life in series [5] came to 4.07 h. For the same compound, the IC50 in series [7] was 0.016 nM.
Turning to `COc1ccc(/N=N/c2sc(N3Nc4onc(-c5ccccc5)c4C3c3ccc(Cl)cc3)nc2C)cc1` (stereo unspecified), the results for the selectivity ratio in series [1] and in series [4] were 971 and 1050, respectively. For the same compound, the CC50 in series [2] amounted to 340 nM; in series [6] it was 460 nM. For the same compound, the 50% effective concentration (EC50) in series [3] is 0.35 nM; in series [8] it was 0.44 nM. Further, the half-life in series [5] was 3.9 h. Besides, the IC50 in series [7] is 0.036 nM.
With `Cc1nc(N2Nc3onc(-c4ccccc4)c3C2c2ccc(Cl)cc2)sc1/N=N/c1ccc([N+](=O)[O-])cc1` (stereo unspecified), the figures for the selectivity ratio in series [1] and in series [4] were 1000 and 1560, respectively. Besides, the CC50 stood at 250 nM in series [2] and 280 nM in series [6]. In addition, the concentration giving a half-maximal response (EC50) in series [3] came to 0.25 nM; in series [8] it was 0.18 nM. For the same compound, the half-life in series [5] was 6.08 h. In addition, in series [7], the IC50 is 0.027 nM.
Take `Cc1csc(N2Nc3onc(-c4ccccc4)c3C2c2ccc(Cl)cc2)n1` (stereo unspecified): the selectivity ratio in series [1] came to 936; in series [4] it was 657. Also, the CC50 in series [2] was found to be 440 nM; in series [6], 230 nM. In addition, the results for the EC50 in series [3] and in series [8] were 0.47 nM and 0.35 nM, respectively. Moreover, in series [5], the half-life came to 5.72 h. In addition, the IC50 in series [7] was found to be 0.046 nM.
Take `N/N=C(\N)N1Nc2onc(-c3ccccc3)c2C1c1ccc(Cl)cc1` (stereo unspecified): the values for the selectivity ratio in series [1] and in series [4] were 739 and 586, respectively. In addition, the CC50 in series [2] worked out at 340 nM; in series [6], 170 nM. Besides, the EC50 amounted to 0.46 nM in series [3] and 0.29 nM in series [8]. Besides, the half-life in series [5] stood at 4.57 h. For the same compound, the IC50 in series [7] worked out at 0.018 nM.
In the case of `CC1=C(/N=N/c2ccccc2)N=C(N2Nc3onc(-c4ccccc4)c3C2c2ccc(Cl)cc2)NN1` (stereo unspecified), the selectivity ratio in series [1] worked out at 523; in series [4] it was 1360. The values for the CC50 in series [2] and in series [6] were 230 nM and 450 nM, respectively. The EC50 stood at 0.44 nM in series [3] and 0.33 nM in series [8]. In addition, in series [5], the half-life is 2.05 h. Besides, the IC50 in series [7] was determined as 0.045 nM.
`CC1=C(/N=N/c2ccc(C)cc2)N=C(N2Nc3onc(-c4ccccc4)c3C2c2ccc(Cl)cc2)NN1` (stereo unspecified): the selectivity ratio in series [1] came to 837; in series [4], 673. Further, the cytotoxic concentration (CC50) came to 360 nM in series [2] and 330 nM in series [6]. For the same compound, the EC50 in series [3] was found to be 0.43 nM; in series [8], 0.49 nM. For the same compound, the half-life in series [5] amounted to 2.57 h. Besides, the IC50 in series [7] stood at 0.019 nM.
As for `CC1=C(/N=N/c2ccc(Cl)cc2)N=C(N2Nc3onc(-c4ccccc4)c3C2c2ccc(Cl)cc2)NN1` (stereo unspecified), the selectivity ratio in series [1] is 403; in series [4], 1220. Further, the CC50 was determined as 270 nM in series [2] and 450 nM in series [6]. Moreover, the EC50 came to 0.67 nM in series [3] and 0.37 nM in series [8]. Also, the half-life in series [5] came to 4.05 h. In addition, the IC50 in series [7] was 0.028 nM.
Consider `O=C1Nc2ccc(Cl)cc2[C@@](C#CC2CC2)(C(F)(F)F)O1` [EFAVIRENZ], for which the results for the CC50 in series [2] and in series [6] were 550 nM and 320 nM, respectively. The EC50 turned out to be 0.92 nM in series [3] and 0.98 nM in series [8]. For the same compound, in series [5], the half-life was 1.48 h.
